Data on three compounds can be found in ChEMBL document CHEMBL1141145, “A chiral benzoquinolizine-2-carboxylic acid arginine salt active against vancomycin-resistant Staphylococcus aureus” (J Med Chem, 2005).

Structures are written as SMILES. Values after ≈ are worked out from the molar mass of the structure shown.

Series [1] in a line: Half life in phase I clinical studies at a i.v. dose of 600 mg. It counts as ADME, organism-based. The note with it: human, in vivo, iv.
In series [2] the test system is Streptococcus pneumoniae. Kind of series: microbe, parasite or virus in culture. The note with it: ATCC 49619.
Series [3] deals with Staphylococcus aureus. Kind of series: Minimum inhibitory concentration against vancomycin-resistant Staphylococcus aureus (Hershey). Type of series: functional.
The test system of series [4] is Staphylococcus aureus. Kind of series: Frequency of resistance emergence for methicillin resistant Staphylococcus aureus-33. It counts as functional.
Series [5] deals with Staphylococcus aureus. Kind of series: Frequency of resistance emergence for methicillin resistant Staphylococcus aureus-5023. Type of series: functional.
Series [6] concerns Staphylococcus haemolyticus. Nature of the series: Minimum inhibitory concentration against Staphylococcus haemolyticus ATCC 29970. It counts as functional.
For series [7], the system named is Mus musculus. Kind of series: Efficacy against mice infected with Staphylococcus aureus ATCC 25923 upon s.c. administration. It counts as functional. The note with it: sc.
Series [8] relates to Staphylococcus aureus. Nature of the series: Minimum inhibitory concentration against Staphylococcus aureus gyrA/grlA double mutant. It counts as functional.
The target in a further series is DNA gyrase (Staphylococcus aureus, UniProt P0A0K8+P20831).
In series [9] the test system is Staphylococcus aureus. Kind of series: Minimum inhibitory concentration against vancomycin intermediate Staphylococcus aureus MU 3. It counts as functional.
Series [10] relates to Staphylococcus aureus. Nature of the series: Mutant prevention concentration against methicillin resistant Staphylococcus aureus-32 done for 48 h at 37 degree C with compound. It counts as functional.
Another series relates to Streptococcus agalactiae. Nature of the series: Minimum inhibitory concentration against Streptococcus agalactiae ATCC 13813. Type of series: functional.
The subject of another series is Klebsiella pneumoniae. Nature of the series: Minimum inhibitory concentration against Klebsiella pneumoniae ATCC 10031. It counts as functional.
Series [11] is described as follows: Peak plasma concentration in phase I clinical studies at a i.v. dose of 600 mg. Type of series: ADME, organism-based. Further details: dose 600 mg, route intravenous. The conditions noted are these: human, iv.
Series [12] has as its system Staphylococcus saprophyticus. Nature of the series: Minimum inhibitory concentration against Staphylococcus saprophyticus ATCC 15305. Type of series: functional.
In another series the test system is Rattus norvegicus. Kind of series: Amount of drug at which at 14 days of daily administration produced no venous blockage or phlebitis in rats. Type of series: functional.
The subject of series [13] is Staphylococcus aureus. Nature of the series: Frequency of resistance emergence for methicillin resistant Staphylococcus aureus-32. Type of series: functional.
Series [14] relates to Streptococcus pneumoniae. Nature of the series: microbe, parasite or virus in culture. The conditions noted are these: ATCC 6303.
The next series concerns Enterococcus faecalis. Nature of the series: Minimum inhibitory concentration against Enterococcus faecalis ATCC 29212. Type of series: functional.
In the next series the test system is Escherichia coli. Kind of series: microbe, parasite or virus in culture. The conditions noted are these: ATCC 25922.
Series [15] has as its system Staphylococcus aureus. Nature of the series: microbe, parasite or virus in culture.
The test system of series [16] is Staphylococcus aureus. Nature of the series: microbe, parasite or virus in culture. The source holds these as a separate data set.
The test system of the next series is Streptococcus sanguinis. Nature of the series: Minimum inhibitory concentration against Streptococcus sanguis ATCC 10556. It counts as functional.
Series [17] deals with Staphylococcus aureus. Nature of the series: Minimum inhibitory concentration against methicillin susceptible Staphylococcus aureus. Type of series: functional. The note with it: Staphylococcus aureus; read-out: MIC.
For series [18], the system named is Mus musculus. Kind of series: Efficacy against mice infected with MRSA-33 upon s.c. administration. It counts as functional. The conditions noted are these: sc.
Series [19] addresses DNA topoisomerase 4 subunit A (Staphylococcus aureus, UniProt P0C1U9).
In series [20] the test system is Staphylococcus aureus. Kind of series: Minimum inhibitory concentration against Staphylococcus aureus ISP 794 (wild type). Type of series: functional.
Series [21] relates to Staphylococcus aureus. Nature of the series: microbe, parasite or virus in culture. This is another data set of the same source.
Series [22] deals with Staphylococcus aureus. Nature of the series: Minimum inhibitory concentration against Staphylococcus aureus grlA mutant. Type of series: functional.
The next series relates to Pseudomonas aeruginosa. Nature of the series: microbe, parasite or virus in culture. The note with it: ATCC 27853.
The test system of series [23] is Staphylococcus aureus. Kind of series: Mutant prevention concentration aganist methicillin resistant Staphylococcus aureus-33 done for 48 hr at 37 degree C with compound. Type of series: functional.
A further series concerns Streptococcus pyogenes. Kind of series: Minimum inhibitory concentration against Streptococcus pyogenes ATCC 19615. Type of series: functional.
The test system of series [24] is Mus musculus. Nature of the series: Efficacy against mice infected with MRSA-32 upon s.c. administration. Type of series: functional. The conditions noted are these: MRSA-32, sc.
Series [25] has as its system Mus musculus. Kind of series: Protection of mice infected with MRSA-32 cell suspension after oral administration of compound. Type of series: functional. The conditions noted are these: Mus musculus, MRSA-32, po; read-out: ED50.
The subject of series [26] is Staphylococcus aureus. Kind of series: Minimum inhibitory concentration against Vancomycin intermediate Staphylococcus aureus MU 50. Type of series: functional.
Series [27] has as its system Staphylococcus aureus. Nature of the series: Minimum inhibitory concentration against Staphylococcus aureus ATCC 25923. It counts as functional.
Series [28] deals with Staphylococcus aureus. Kind of series: Minimum inhibitory concentration against Staphylococcus aureus gyrA mutant. Type of series: functional.
Series [29] concerns Staphylococcus aureus. Nature of the series: Mutant prevention concentration aganist methicillin resistant Staphylococcus aureus-5023 done for 48 hr at 37 degree C with compound. It counts as functional.
For a further series, the system named is Phocaeicola vulgatus. Kind of series: Minimum inhibitory concentration against Bacteroides vulgatus ATCC 29327. It counts as functional.
Series [30] in a line: physchem. The conditions noted are these: octanol/water, pH 7.4.
Series [31] is described as follows: physchem.
Series [32] is described as follows: physchem. The source holds these as a separate data set.
Series [33] can be described thus: physchem. This is another data set of the same source.
Series [34] can be described thus: physchem. The conditions noted are these: octanol/water, pH 2.
The subject of series [35] is Staphylococcus aureus. Kind of series: Ratio of MPC to MIC against methicillin resistant Staphylococcus aureus-5023. It counts as functional.
Series [36] concerns Staphylococcus aureus. Nature of the series: Ratio of MPC to MIC aganist methicillin resistant Staphylococcus aureus-32. Type of series: functional.
For series [37], the system named is Staphylococcus aureus. Kind of series: Ratio of MPC to MIC against methicillin resistant Staphylococcus aureus-33. It counts as functional.

DNA gyrase, sequence (P0A0K8 whole entry): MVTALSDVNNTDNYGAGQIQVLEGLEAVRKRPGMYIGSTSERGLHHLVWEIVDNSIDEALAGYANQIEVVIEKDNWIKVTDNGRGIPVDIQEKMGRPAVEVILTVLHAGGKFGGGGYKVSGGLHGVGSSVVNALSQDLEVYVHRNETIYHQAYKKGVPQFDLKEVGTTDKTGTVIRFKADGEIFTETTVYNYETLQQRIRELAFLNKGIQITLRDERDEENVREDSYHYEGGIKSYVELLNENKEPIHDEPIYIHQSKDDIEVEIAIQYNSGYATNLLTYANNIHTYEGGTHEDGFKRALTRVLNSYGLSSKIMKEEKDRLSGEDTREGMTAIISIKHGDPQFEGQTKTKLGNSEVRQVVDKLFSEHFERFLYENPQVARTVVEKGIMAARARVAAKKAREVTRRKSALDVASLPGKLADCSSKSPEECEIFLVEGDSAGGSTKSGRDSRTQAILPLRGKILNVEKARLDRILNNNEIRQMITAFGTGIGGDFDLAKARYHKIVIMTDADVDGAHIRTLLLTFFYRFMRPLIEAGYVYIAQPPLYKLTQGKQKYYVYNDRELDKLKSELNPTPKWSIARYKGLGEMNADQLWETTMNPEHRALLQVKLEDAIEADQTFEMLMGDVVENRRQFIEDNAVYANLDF
DNA gyrase, sequence (P20831 whole entry): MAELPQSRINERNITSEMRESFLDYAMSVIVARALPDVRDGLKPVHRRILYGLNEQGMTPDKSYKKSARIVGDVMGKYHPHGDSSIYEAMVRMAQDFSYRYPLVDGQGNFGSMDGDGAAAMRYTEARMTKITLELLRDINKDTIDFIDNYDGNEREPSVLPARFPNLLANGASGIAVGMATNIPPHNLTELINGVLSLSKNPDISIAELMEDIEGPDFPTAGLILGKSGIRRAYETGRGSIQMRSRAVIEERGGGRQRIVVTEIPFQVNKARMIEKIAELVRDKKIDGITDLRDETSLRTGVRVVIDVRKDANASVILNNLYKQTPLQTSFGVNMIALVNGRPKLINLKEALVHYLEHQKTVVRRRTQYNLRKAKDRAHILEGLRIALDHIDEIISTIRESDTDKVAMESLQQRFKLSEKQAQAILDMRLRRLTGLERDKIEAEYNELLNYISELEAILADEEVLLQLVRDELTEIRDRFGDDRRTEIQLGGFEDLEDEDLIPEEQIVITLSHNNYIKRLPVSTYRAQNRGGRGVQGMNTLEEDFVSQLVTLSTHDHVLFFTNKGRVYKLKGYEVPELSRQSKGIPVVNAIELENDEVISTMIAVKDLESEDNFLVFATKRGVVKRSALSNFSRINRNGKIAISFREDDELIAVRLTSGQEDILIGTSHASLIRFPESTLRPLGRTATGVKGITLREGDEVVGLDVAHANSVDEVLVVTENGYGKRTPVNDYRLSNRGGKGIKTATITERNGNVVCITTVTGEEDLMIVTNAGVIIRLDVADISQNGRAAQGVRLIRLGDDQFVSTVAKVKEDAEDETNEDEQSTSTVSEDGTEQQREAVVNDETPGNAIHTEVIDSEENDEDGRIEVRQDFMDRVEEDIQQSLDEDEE
DNA topoisomerase 4 subunit A, sequence (P0C1U9 whole entry): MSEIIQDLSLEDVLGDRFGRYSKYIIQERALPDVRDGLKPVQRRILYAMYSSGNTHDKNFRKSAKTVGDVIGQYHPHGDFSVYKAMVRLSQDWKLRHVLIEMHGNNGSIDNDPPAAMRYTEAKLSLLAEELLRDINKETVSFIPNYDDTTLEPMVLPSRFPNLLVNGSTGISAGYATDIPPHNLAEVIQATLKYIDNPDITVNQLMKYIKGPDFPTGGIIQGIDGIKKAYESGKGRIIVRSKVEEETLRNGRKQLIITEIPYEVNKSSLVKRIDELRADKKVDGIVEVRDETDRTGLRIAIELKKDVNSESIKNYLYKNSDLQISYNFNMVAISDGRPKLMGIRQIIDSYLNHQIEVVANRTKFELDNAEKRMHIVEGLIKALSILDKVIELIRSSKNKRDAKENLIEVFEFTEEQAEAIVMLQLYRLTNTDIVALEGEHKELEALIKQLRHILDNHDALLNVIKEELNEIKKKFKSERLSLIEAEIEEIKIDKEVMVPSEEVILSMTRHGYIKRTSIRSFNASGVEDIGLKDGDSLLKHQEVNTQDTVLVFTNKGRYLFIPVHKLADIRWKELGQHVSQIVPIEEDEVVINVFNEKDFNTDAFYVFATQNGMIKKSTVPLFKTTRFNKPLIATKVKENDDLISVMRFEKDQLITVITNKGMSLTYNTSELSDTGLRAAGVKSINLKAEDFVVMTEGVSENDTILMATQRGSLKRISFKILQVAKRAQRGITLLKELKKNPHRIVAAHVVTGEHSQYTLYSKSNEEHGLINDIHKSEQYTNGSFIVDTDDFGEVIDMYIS

On to `C[C@H]1CCc2c(N3CCC(O)CC3)c(F)cc3c(=O)c(C(=O)O)cn1c23.N=C(N)NCCC[C@H](N)C(=O)O.O.O.O.O`, for which the half-life in series [1] is 6 h. For the same compound, the MIC in the series on Streptococcus pneumoniae [2] was found to be 0.12 µg/mL; in the series on Staphylococcus aureus [3] it was 0.5 µg/mL; in series [6], 0.015 µg/mL; in the series with Staphylococcus aureus [8] it was 1 µg/mL; against Staphylococcus aureus [9] it was 2 µg/mL; in the series with Streptococcus agalactiae, 0.12 µg/mL. The MIC against Klebsiella pneumoniae came to 0.008 µg/mL; in [12], 0.06 µg/mL; against Streptococcus pneumoniae [14] it was 0.12 µg/mL; in the series on Enterococcus faecalis it was 0.25 µg/mL; in the series with Escherichia coli, 0.12 µg/mL; in the series on Staphylococcus aureus [15], 1 µg/mL. For the same compound, the MIC is 1 µg/mL in the series on Staphylococcus aureus [16]; 0.25 µg/mL in the series on Streptococcus sanguinis; 0.03 µg/mL with Staphylococcus aureus [17]; 0.016 µg/mL against Staphylococcus aureus [20]; 1 µg/mL in the series on Staphylococcus aureus [21]; 0.032 µg/mL in the series on Staphylococcus aureus [22]. The MIC against Pseudomonas aeruginosa turned out to be 4 µg/mL; in the series on Streptococcus pyogenes it was 0.06 µg/mL; in the series on Staphylococcus aureus [26], 1 µg/mL; in the series with Staphylococcus aureus [27], 0.03 µg/mL; against Staphylococcus aureus [28] it was 0.032 µg/mL; with Phocaeicola vulgatus, 0.5 µg/mL. In addition, the FRE with Staphylococcus aureus [4] is listed as less than 3.51e-09; in the series with Staphylococcus aureus [5], less than 4.1e-07; in the series on Staphylococcus aureus [13], less than 6.51e-09. In addition, the median effective dose (ED50) in the series on Mus musculus [7] was found to be 0.59 mg/kg; with Mus musculus [18], 38.3 mg/kg; in the series on Mus musculus [24] it was 27.8 mg/kg; in the series on Mus musculus [25], 93.6 mg/kg. Also, the IC50 (at DNA gyrase; in series [19]) was 8.24 µM in each case. The MPC with Staphylococcus aureus [10], with Staphylococcus aureus [23] and with Staphylococcus aureus [29] was 2 µg/mL in each case. Besides, the Cmax in series [11] turned out to be 4000 ng/mL. Also, the NOEL in the series with Rattus norvegicus turned out to be 250 mg/kg.

Turning to `N[C@@H]1[C@H]2CN(c3nc4c(cc3F)c(=O)c(C(=O)O)cn4-c3ccc(F)cc3F)C[C@@H]12` [TROVAFLOXACIN], the log distribution coefficient (logD) in “physchem [30]” is 0.42; in the series “physchem [34]” it was -0.35. Moreover, the figures for the pKa in the series “physchem [31]”, in “physchem [32]” and in the series “physchem [33]” were 8.02, 4.45 and 8.13, respectively.

Consider `COc1c(N2CCNC(C)C2)c(F)cc2c(=O)c(C(=O)O)cn(C3CC3)c12` (stereo not given) [GATIFLOXACIN], for which the MIC is 0.5 µg/mL (≈ 1.33 µM) in the series on Streptococcus pneumoniae [2]; 0.06 µg/mL (≈ 0.16 µM) in [6]; 0.25 µg/mL (≈ 0.666 µM) with Streptococcus agalactiae; 0.008 µg/mL (≈ 0.0213 µM) in the series with Klebsiella pneumoniae; 0.25 µg/mL (≈ 0.666 µM) in series [12]; 0.5 µg/mL (≈ 1.33 µM) against Streptococcus pneumoniae [14]. The MIC is 0.25 µg/mL (≈ 0.666 µM) against Enterococcus faecalis; 0.03 µg/mL (≈ 0.0799 µM) with Escherichia coli; 0.5 µg/mL (≈ 1.33 µM) in the series with Streptococcus sanguinis; 4 µg/mL (≈ 10.7 µM) in the series on Pseudomonas aeruginosa; 0.25 µg/mL (≈ 0.666 µM) in the series on Streptococcus pyogenes; 0.1 µg/mL (≈ 0.266 µM) in the series with Staphylococcus aureus [27]. Further, the MIC against Phocaeicola vulgatus was 0.5 µg/mL (≈ 1.33 µM). The logD in “physchem [30]” was -0.79; in “physchem [34]” it was -1.14. The pKa amounted to 9.82 in the series “physchem [31]” and 5.97 in “physchem [32]”. The figures for the FRE with Staphylococcus aureus [4], with Staphylococcus aureus [5] and with Staphylococcus aureus [13] were 0.0041, 3.51e-06 and 0.000451, respectively. Moreover, the MPC with Staphylococcus aureus [10] was 8 µg/mL; in the series with Staphylococcus aureus [23] it was 14 µg/mL; in the series on Staphylococcus aureus [29], 8 µg/mL. For the same compound, the MPC/MIC with Staphylococcus aureus [35] came out at 2; in the series with Staphylococcus aureus [36] it was 2; in the series with Staphylococcus aureus [37], 3.5.
